Several values for one entry are separate records, joined by “and”; a condition that tells them apart may be missing. Identical values can stand only once.
These compounds were tested against Nonstructural protein 3 (Zika virus, UniProt A0A024AXB9) (assay: Functional biochemical assay to identify treatments for viral infectious disease that targets Zika NS2B-NS3 protease. Utilizing a direct enzyme activity measurement method, reading the fluorescence intensity is used to characterize the relative potency of inhibitors as IC50.).
Parameters: species or system PRVABC59

Chain of Nonstructural protein 3 (A0A024AXB9 whole entry): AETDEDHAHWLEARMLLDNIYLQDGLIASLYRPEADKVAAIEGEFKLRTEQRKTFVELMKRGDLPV

| Structure (SMILES) | IC50 |
| --- | --- |
| c1ccc2nc(SCc3cn4ccccc4n3)cnc2c1 | > 99.5 µM |
| c1ccc(C2CCN(Cc3ccc4nccnc4c3)CC2)nc1 | > 99.5 µM |
| c1cc2sccc2c(N2CCN(Cc3ccc4cn[nH]c4c3)CC2)n1 | > 99.5 µM |
| O=C(O)c1sc2cccnc2c1Br | > 99.5 µM |
| Brc1cnn(C2CCN(Cc3csnn3)CC2)c1 | > 99.5 µM |
| COc1ccc2c(O)nn(S(=O)(=O)c3ccc(C(=O)O)cc3)c2c1 | > 99.5 µM |
| NC(=O)c1ccc(Cn2nnc(C=Cc3ccccc3)n2)cc1 | > 99.5 µM |
| [O-][S@@+](Cc1nc(-c2cccs2)no1)c1cccs1 | > 99.5 µM |
| Cc1nnnn1Cc1ncc(Br)s1 | > 99.5 µM |
| O=C(O)c1c(Br)sc2nnsc12 | 40.2 µM |
| C[S@@+]([O-])c1nncn1Cc1ccc(Cl)s1 | > 99.5 µM |
| O=S(=O)(CCOc1ccccc1)c1nccs1 | > 99.5 µM |
| O=c1[nH]c(CSc2ccccc2Cl)nc2ccsc12 | > 99.5 µM |
| Cc1nnc(CSc2ncnc3sccc23)o1 | > 99.5 µM |
| c1nnc(SCCCSc2nncs2)s1 | > 99.5 µM |
| O=c1ccn(Cc2cc(=O)n3ccccc3n2)c2ccsc12 | > 99.5 µM |
| Brc1nc(Br)n(Cc2cscn2)n1 | > 99.5 µM |
| Cn1ncnc1Sc1nc(C2CCCC2)ns1 | > 99.5 µM |
| O=c1c2ccccc2nnn1CSc1nnc(-c2ccccc2)o1 | > 99.5 µM |
| COCc1nn(CC#Cc2ccc(Cl)cc2)c(=O)o1 | > 99.5 µM |
| O=C(Nc1cc(Cl)cc(C(=O)Nc2ccnc([C@H]3CCCN3)n2)c1)OCc1ccccc1 | 82.6 µM |
| [O-][S@@+](Cc1ncccn1)c1ncccc1Br | > 99.5 µM |
| C[C@H]1CCC[C@H](C(=O)Nc2cccc(CN)c2)O1 | > 99.5 µM |

| Structure (SMILES) | IC50 |
| --- | --- |
| NCc1cccc(NC(=O)[C@H]2C[C@@H](C(F)(F)F)C[C@@H](C(F)(F)F)C2)c1 | > 99.5 µM |
| Cn1cncc1COc1cccc([C@H](NC(=O)OCc2ccccc2)C(=O)Nc2cccc(CN)c2)c1 | 32.6 µM |
| O=S(=O)(c1cccs1)N1CCN(CC=Cc2ccccc2)CC1 | > 99.5 µM |
| CS(=O)(=O)N(c1cc(Cl)cc(C(=O)Nc2cccc(CN)c2)c1)S(C)(=O)=O | > 99.5 µM |
| N#Cc1ccc(OCCn2nnn(-c3ccccc3)c2=O)cc1 | > 99.5 µM |
| NCCc1ccc(NC(=O)c2cc(Cl)cc(CN)c2)cc1 | 8.04 µM |
| COCC=Cc1cccc([C@@H](NC(=O)OCc2ccccc2)C(=O)Nc2cccc(CN)c2)c1 | 26.8 µM |
| N#Cc1ccc(S(=O)(=O)CCn2nc(-c3ccco3)oc2=O)cc1 | > 99.5 µM |
| O=c1ccc(N2CCN(Cc3c[nH]c4ccccc34)CC2)c[nH]1 | > 99.5 µM |
| NCc1cccc(NC(=O)c2cc(N)cc(Cl)c2)c1 | 39.6 µM |
| c1cncc(CN2CC[C@H](NCc3c[nH]c4ccccc34)C2)c1 | > 99.5 µM |
| CCOc1cccc(-c2ccc(S(=O)(=O)Nc3ccc(Cl)cc3C(=O)O)cc2C)c1 | 11.1 µM |
| NC1CN(c2ccc(NS(=O)(=O)c3ccc(Oc4ccccc4Cl)cc3)cn2)C1 | > 99.5 µM |
| NCc1cccc(NC(=O)[C@H](NC(=O)OCc2ccccc2)c2cccc(-c3ccnc(N)c3)c2)c1 | 48.1 µM |
| O=C(Nc1cc(Cl)cc(C(=O)Nc2cccc(-c3cc[nH]n3)c2)c1)OCc1ccccc1 | > 99.5 µM |
| CC(C)(C)OC(=O)NCc1cccc(NC(=O)C[C@H](N)c2ccc(OCc3ccccc3)c(Br)c2)c1 | > 99.5 µM |
| N[C@H]1CCCc2ccc(NC(=O)c3cc(Cl)cc(NC(=O)OCc4ccccc4)c3)cc21 | 12.1 µM |
| NCCc1cc(Cl)cc(C(=O)Nc2cccc(CN)c2)c1 | 0.33 µM |
| NCc1cccc(NC(=O)[C@@H](NC(=O)OCc2ccccc2)c2cccc(-c3ccc(CN)cc3F)c2)c1 | 32.3 µM |
| NC1(c2cccc(NC(=O)c3cc(Cl)cc(NC(=O)OCc4ccccc4)c3)c2)CCOCC1 | > 99.5 µM |
| CCc1cc(NC(=O)OCc2ccccc2)cc(C(=O)Nc2cccc(CN)c2)c1 | 39.8 µM |
| NCc1cc(Cl)cc(C(=O)Nc2cccc(C3CCNCC3)c2)c1 | 25.8 µM |
| COc1ccc(-c2cccc([C@H](NC(=O)OCc3ccccc3)C(=O)Nc3cccc(CN)c3)c2)c(C#N)c1 | 11.2 µM |

| Structure (SMILES) | IC50 |
| --- | --- |
| NCc1cccc(NC(=O)[C@H](NC(=O)OCc2ccccc2)c2cccc(-c3ccccn3)c2)c1 | 82.4 µM |
| CC(C)(CNCc1c[nH]c2ccccc12)c1cccnc1 | > 99.5 µM |
| O=C(Nc1cc(Cl)cc(C(=O)Nc2cccc([C@H]3CCNC3)c2)c1)OCc1ccccc1 | 8.73 µM and 11.6 µM |
| Cn1cc(NC(=O)c2cc(Cl)cc(NC(=O)OCc3ccccc3)c2)cn1 | > 99.5 µM |
| NCc1cccc(CNC(=O)[C@H]2[C@H]3CCCCC[C@H]3[C@H]2NC(=O)OCc2ccccc2)c1 | 12.3 µM and 59.6 µM and 27 µM |
| Brc1ccsc1CSc1cnn[nH]1 | > 99.5 µM |
| COC(=O)c1cc(NC(=O)OCc2ccccc2)cc(C(=O)Nc2cccc(CN)c2)c1 | 55.7 µM |
| Clc1snnc1CN1CCC(c2nc3ccccc3o2)CC1 | > 99.5 µM |
| O=C(Nc1cc(Cl)cc(C(=O)Nc2nccc([C@H]3CCCCN3)n2)c1)OCc1ccccc1 | > 99.5 µM |
| NCc1cccc(NC(=O)c2cc(Cl)cc(C(N)=O)c2)c1 | 1.35 µM |
| NCc1ccc(NC(=O)[C@H]2[C@H]3CCCCC[C@H]3[C@H]2NC(=O)OCc2ccccc2)cc1 | 36.6 µM |
| O=C(Nc1cc(Cl)cc(C(=O)Nc2nc([C@H]3CCCN3)cc(=O)[nH]2)c1)OCc1ccccc1 | 92 µM |
| Brc1cccc2cn(Cc3ncccn3)nc12 | > 99.5 µM |
| O=c1oc2cccnc2n1CC=Cc1ccccc1 | > 99.5 µM |
| c1ccc2[nH]c(CC3CCN(Cc4nccs4)CC3)nc2c1 | > 99.5 µM |
| Cn1c(Sc2nc3ccccc3o2)nc2sccc2c1=O | > 99.5 µM |
| O=C(Nc1cc(Cl)cc(C(=O)Nc2cccc(CO)c2)c1)OCc1ccccc1 | > 99.5 µM |
| NCc1cccc(NC(=O)[C@H](NC(=O)OCc2ccccc2)c2cccc(-c3ccc4c(c3)CC(=O)N4)c2)c1 | 8.83 µM |
| Cc1cc(C)c([C@@H](CC(=O)Nc2cccc(CN)c2)NC(=O)OCc2ccccc2)cc1C | 5.67 µM and 6.27 µM |
| Cc1ccc(CN)cc1-c1cccc([C@H](NC(=O)OCc2ccccc2)C(=O)Nc2cccc(CN)c2)c1 | 18.2 µM |
| Cn1cc(-c2cccc([C@@H](NC(=O)OCc3ccccc3)C(=O)Nc3cccc(CN)c3)c2)ccc1=O | 73.9 µM |
| O=C(NCc1ccco1)c1csc(Br)c1 | > 99.5 µM |
| CC(F)(F)c1cccc(NC(=O)c2cc(Cl)cc(NC(=O)OCc3ccccc3)c2)c1 | > 99.5 µM |

| Structure (SMILES) | IC50 |
| --- | --- |
| O=C(Nc1cc(Cl)cc(C(=O)Nc2cccc(-c3nnn[nH]3)c2)c1)OCc1ccccc1 | 40.8 µM |
| Nc1nc(S(=O)(=O)c2ccccc2)c(Cl)s1 | > 99.5 µM |
| O=C(NCc1nccs1)c1sccc1Cl | > 99.5 µM |
| CN(C)[C@@H]1CCC[C@H](C(=O)Nc2cccc(CN)c2)C1 | > 99.5 µM |
| N[C@H](CO)c1cccc(NC(=O)c2cc(Cl)cc(NC(=O)OCc3ccccc3)c2)c1 | 57.4 µM |
| Cc1cc(C(F)(F)F)nc(C(=O)Nc2cccc(CN)c2)n1 | > 99.5 µM |
| CN(C)CCC(=O)N1CCC([C@@H](NC(=O)OCc2ccccc2)C(=O)Nc2cccc(CN)c2)CC1 | > 99.5 µM |
| NC1(c2cccc(NC(=O)c3cc(Cl)cc(NC(=O)OCc4ccccc4)c3)c2)CC1 | > 99.5 µM |
| NCc1cccc(Oc2ccc(S(=O)(=O)Nc3ccc(Cl)cc3C(=O)NCC(F)(F)F)cc2)c1 | > 99.5 µM |
| NC(=O)c1cccc(NC(=O)c2cc(Cl)cc(NC(=O)OCc3ccccc3)c2)c1 | > 99.5 µM |
| NCc1cccc(NC(=O)c2cc(Cl)cc3[nH]ncc23)c1 | 0.886 µM |
| CC[C@@H](Cc1nnn[nH]1)c1ccc(NC(=O)c2cc(Cl)cc(NC(=O)OCc3ccccc3)c2)cc1 | 18.7 µM |
| O=C(Nc1cc(Cl)cc(C(=O)Nc2cccc(Cc3nn[nH]n3)c2)c1)OCc1ccccc1 | 64.9 µM |
| O=c1ccc(-n2cncn2)nn1CC=Cc1ccccc1 | > 99.5 µM |
| CCSc1nnc(SCCn2nc3ccccn3c2=O)s1 | > 99.5 µM |
| O=c1ccccn1-c1ncc(Br)cn1 | > 99.5 µM |
| NCc1cccc(NC(=O)[C@@H](NC(=O)OCc2ccccc2)c2cccc(-c3cncnc3)c2)c1 | > 99.5 µM |
| CC(=O)NCc1cccc(NC(=O)c2cc(Cl)cc(NC(=O)OCc3ccccc3)c2)c1 | > 99.5 µM |
| C=C(C)c1cc(NC(=O)OCc2ccccc2)cc(C(=O)Nc2cccc(CN)c2)c1 | 14.8 µM |
| O=c1c2cccn2cnn1Cc1cnc(Cl)s1 | > 99.5 µM |
| Cc1nnsc1Cn1ccc(Br)n1 | > 99.5 µM |
| C=C(C)c1cccc([C@@H](NC(=O)OCc2ccccc2)C(=O)Nc2cccc(CN)c2)c1 | 9.65 µM |
| CNCc1cc(Cl)cc(C(=O)Nc2cccc(CN)c2)c1 | 1.42 µM |

| Structure (SMILES) | IC50 |
| --- | --- |
| NCc1cccc(NC(=O)[C@@H](NC(=O)OCc2ccccc2)c2cccc(-c3ccc(N)nc3)c2)c1 | 43.6 µM |
| O=c1c2ccccc2ncn1CCCn1cnc2ccccc2c1=O | > 99.5 µM |
| O=S1(=O)CCN(CC#Cc2ccc3sncc3c2)CC1 | > 99.5 µM |
| NCCc1cccc(NC(=O)[C@H]2[C@H]3CCCCC[C@H]3[C@H]2NC(=O)OCc2ccccc2)c1 | 7.87 µM |
| COC(=O)c1cc2scc(Br)c2[nH]1 | > 99.5 µM |
| N#Cc1csc(CSc2nnc(C(F)(F)F)s2)n1 | > 99.5 µM |
| C[C@@H](NCc1c[nH]c2ccccc12)c1cscn1 | > 99.5 µM |
| N[C@H]1CCc2ccc(NC(=O)c3cc(Cl)cc(NC(=O)OCc4ccccc4)c3)cc21 | 8.42 µM |
| CS(=O)(=O)Nc1c(Cl)cc(Cl)cc1C(=O)Nc1cccc(CN)c1 | > 99.5 µM |
| NCc1cccc(NC(=O)c2cc(Br)cnc2OCC2CC2)c1 | > 99.5 µM |
| NCc1cc(NS(=O)(=O)c2ccc(Oc3ccccc3Cl)cc2)ccc1Cl | > 99.5 µM |
| COc1ccc2c(c1)c(C(=O)Nc1cccc(CN)c1)c(C)n2C1CCCC1 | > 99.5 µM |
| c1csc(CSc2nnc(Cn3cncn3)o2)c1 | > 99.5 µM |
| CN1CC=C(c2cccc([C@@H](NC(=O)OCc3ccccc3)C(=O)Nc3cccc(CN)c3)c2)CC1 | 67.5 µM |
| NCc1cccc(NC(=O)c2cc(Cl)cc(CN3CCOCC3)c2)c1 | 52.9 µM |
| OC[C@H](Cc1cccnc1)NCc1c[nH]c2ccccc12 | > 99.5 µM |
| C[C@@H](N)c1cc(Cl)cc(C(=O)Nc2cccc(CN)c2)c1 | 3.42 µM |
| c1csc(-c2nnc(Sc3ncnc4sccc34)o2)c1 | > 99.5 µM |
| N[C@H]1CCOc2ccc(NC(=O)c3cc(Cl)cc(NC(=O)OCc4ccccc4)c3)cc21 | 10.6 µM |
| O=C(Nc1cc(Cl)cc(C(=O)Nc2cccc(-n3nn[nH]c3=O)c2)c1)OCc1ccccc1 | 30.8 µM |

Source: ChEMBL document CHEMBL5604062, “ASAP - ZIKV NS2B-NS3 protease fluorescence dose response” (2024)
